Laboratory results taken from ChEMBL document CHEMBL1806489, “Synthesis and biological evaluation of novel F-18 labeled pyrazolo[1,5-a]pyrimidine derivatives: potential PET imaging agents for tumor detection” (Bioorg Med Chem Lett, 2011).

Columns and labels:
Type in all cases: ADME, cell-based
CCRF S-180 [1] = test: Cellular uptake in mouse S180 cells after 60 mins; details: ccrf s-180, 1 h
CCRF S-180 [2] = test: Cellular uptake in mouse S180 cells after 30 mins; details: ccrf s-180, 0.5 h
CCRF S-180 [3] = test: Cellular uptake in mouse S180 cells relative to [18F]FDG

## O=C[C@H]([18F])[C@@H](O)[C@H](O)[C@H](O)CO
CCRF S-180 [1]
  Drug uptake: 9%
CCRF S-180 [2]
  Drug uptake: Active

## N[C@@H](Cc1ccc(OCC[18F])cc1)C(=O)O [FLORETYROSINE F18]
CCRF S-180 [1]
  Drug uptake: 9%
CCRF S-180 [3]
  Drug uptake: < 7%
